This is an account of results in US20210015857A1, “METHOD FOR IMMUNOTHERAPY DRUG TREATMENT” (The University of Western Australia, priority 2018, published 2021).

The test system of one assay is urothelial cancer. As to conditions: 348 urothelial cancer patients; cited from earlier work.
Assay [1] deals with AB1-HA mesothelioma tumours. Briefly: Tretinoin combined with ICB in AB1-HA tumour-bearing mice, tumour growth. The format is in vivo, mouse. The protocol:
[…] The administration of tretinoin to the mice started either 3 days before ICB or at the same time as the ICB (arm 6). Tretinoin was dosed at three dosages; 10 mg/kg (arm 3), 5 mg/kg (arm 4) or 1 mg/kg (arm 5) and was given for 9 days in total.

In the next assay the test system is CT26 colorectal tumours. Briefly: pSTAT1 immunohistochemistry of tumours after tretinoin. The format is in vivo, mouse. Particulars: tretinoin 10 mg/kg (FIG. 22A, B).
The next assay relates to Renca kidney cancer. Kind of assay: pSTAT1 flow cytometry of tumours after tretinoin. Format: in vivo, mouse. As to conditions: tretinoin (FIG. 22C). As to the method:
(§1) For detection of phospho-STAT1, dissociated tumours were stained with surface antibodies, fixed with 1.5% formaldehyde for 10 minutes, then permeabilized with ice-cold methanol at 4° C. for 10 minutes. Cells were stained with a rabbit-anti-pSTAT1 antibody (Tyr701) -PE (Cell Signaling Technology) for 30 minutes at room temperature (RT).
To test whether retinoids induce the ICB response-associated phenotype characterised by increased NK cells, inflammatory markers and pSTAT1 positive leukocytes in the tumour, Renca kidney cancer-bearing mice were treated for […] with oral tretinoin (10 mg/kg) starting on day 12 and harvested tumours on day 15 for flow cytometry. In subsequent experiments AB1-HA mesothelioma or CT26 colorectal cancer tumour-bearing mice were treated with tretinoin for 3 days at 10 mg/kg i.p., starting on day 10 and harvested tumours on day 13 for flow cytometry and immunohistochemistry.

Assay [2] deals with Renca kidney cancer tumours. Briefly: Oral retinoids combined with ICB in Renca kidney cancer-bearing mice. As to conditions: retinoid oral 6 days from day 9, ICB days 12, 14, 16 (FIG. 24). Format: in vivo, mouse. As to the method:
The following retinoids and dosages were employed: Bexarotene (Saphire Bioscience) was dosed at 100 mg/kg; tretinoin and isotretinoin (Sigma-Aldrich) were all dosed at 10 mg/kg.

The test system of another assay is melanoma. As to conditions: melanoma cohort n=33; cited from earlier work.
The test system of assay [3] is AE17 mesothelioma tumours. Kind of assay: Poly(I:C) pretreatment followed by ICB with or without IFNAR blocking antibody, tumour growth. Format: in vivo, mouse. As to the method: To test whether the mechanism underlying the priming effect of Poly-I:C was mediated through IFN alpha/beta induction (as discussed in Example 6), priming experiments were repeated while adding blocking antibodies against the IFN alpha/beta receptor (IFNAR). C57BL/6 AE17 mesothelioma tumour-bearing mice were treated with CPB on day 22 after tumour inoculation, with or without pretreatment of 3 days of 50 μg s.c. Poly-I:C in the tumour area (day 17-19), with or without blocking antibodies against IFNAR (e.g., […] monoclonal antibody MAR1-5A3 as sourced from BiXcell) (0.5 mg i.p., 3 times/week) starting at the same time.

The test system of assay [4] is AE17 mesothelioma tumours. Briefly: Flow cytometry of AE17 tumours after intratumoural IFN alpha or poly(I:C) pretreatment. Format: in vivo, mouse. As to conditions: intratumoural 3 days, vs PBS (FIG. 17). As to the method: For flow cytometry, tumours were harvested and immediately submerged in cold PBS, cut into 1-2 mm pieces with a scalpel blade and dissociated using the GentleMACS system. Fc block (anti-CD16/CD32, BD) was used for 10 minutes on ice. UV Zombie live/dead (Biolegend) was used to discriminate live cells. Cells were permeabilized and fixed using FoxP3 fix/Perm buffer kit (Biolegend) before addition of antibodies for 20 minutes at RT. See Supplementary Table 2 for antibody details. Cells were kept in stabilizing fixative until acquisition. Data were acquired on a BD Fortessa flow cytometer and analyzed using FlowJo software (TreeStar).
as §1
To verify the potential of recombinant IFN alpha to induce the response-associated phenotype (i.e., to sensitise the tumour cellular microenvironment to ICB) similarly to Poly-I:C, AE17 mesothelioma tumour-bearing mice were pretreated with Poly-I:C or recombinant IFN alpha (: R&D systems) intratumourally for 3 days (or PBS control). […]

Description for CT26 colorectal tumours: For immunohistochemical staining of STAT1 and pSTAT1, slides of 4-μm thickness were cut from formalin-fixed, parafin-embedded (FFPE) tissue blocks. Subsequently, slides were deparafinized in two changes of xylene for about 5 min followed by rehydration in changes of 100%, 96%, 70% and 40% ethanol and distilled water. Next, for STAT1 staining, antigen retrieval using 10 mM citrate buffer (pH 6.0) was performed for about 10 min at 121° C. using a pressure cooker (the PT-module, Thermo scientific, labvision). For pSTAT1 staining, slides were sub-boiled in 1 M EDTA buffer (pH 8.0) for about 10 minutes in a microwave. Slides were rinsed in TBST and the endogenous peroxidase was blocked using 3% hydrogen peroxidase (Sigma) in distilled water. Sections were washed again in TBST and blocked with goat serum (Vectastain) diluted in PBS as per manufacturer's instructions. Primary antibody, STAT1 or pSTAT1 (Cell Signaling, dilution: 1/800 and 1/200 respectively), was incubated for 60 minutes at room temperature (RT). Sections were washed and secondary antibody, goat anti-Rb IgG-HRP (Santa Cruz), was incubated for about 30 minutes at RT, before washing again. Betazoid DAB chromogen (Biocare Medical) was prepared as per manufacturer's instructions. Chromogen was applied, sections were monitored for the development of a brown colour and the reaction was stopped with H2O. […]

For atezolizumab: anti-PD-L1 antibody, in the assay on urothelial cancer, the “best response: complete responders (CR), number of patients” value was 25; the “best response: partial responders (PR), number of patients” value is 43; the “best response: progressors (PD), number of patients” value is 167; the “best response: stable disease (SD), number of patients” value is given as 63.

For `CC1=C(/C=C/C(C)=C/C=C/C(C)=C/C(=O)O)C(C)(C)CCC1` [tretinoin, all-trans retinoic acid], the “efficacy of ICB, retinoid before ICB vs at same time as ICB” value in assay [1] (AB1-HA (FIG. 21)) is “markedly improved the efficacy of ICB compared to when the retinoid was administered at same time as ICB”. Moreover, in assay [1] (AB1-HA, tretinoin 10 mg/kg i.p. 9 days from day 6, anti-PD-L1 days 8, 10, 12 (FIG. 23)), the “efficacy of combination with anti-PD-L1 antibody alone as ICB” value was “more efficacious than use of the antibody alone”. For the same molecule, the “response of the tumours to ICB” value in assay [1] (AB1-HA, tretinoin 10, 5 or 1 mg/kg for 9 days starting 3 days before anti-CTLA4/anti-PD-L1 (FIG. 21)) is recorded as “improved the response of the tumours to ICB in a dose-dependent manner”. Moreover, the “pSTAT1 immune cell infiltrates in tumours (immunohistochemistry)” value in the assay on CT26 colorectal tumours was “increased patches of pSTAT1 immune cell infiltrates”. In the assay with Renca kidney cancer, the “pSTAT1 positive leukocytes in tumours (flow cytometry)” value was “increased pSTAT1 positive leukocytes in tumours, particularly in MHC class II positive cells”.

In the case of `C=C(c1ccc(C(=O)O)cc1)c1cc2c(cc1C)C(C)(C)CCC2(C)C` [bexarotene], in assay [2], the “percentage of complete regression after combination therapy with ICB, compared to ICB alone” value was “increased percentage of complete regression”.

For the molecule nivolumab: anti-PD1 antibody, in the assay with melanoma, the “non-responsive (PD), number of patients” value was 23; the “responsive (CR and PR), number of patients” value is on record as 10.

Regarding “olyinosinic:polycytidylic acid [poly(I:C)]”, the “beneficial effect of pretreatment under IFNAR blockade” value in assay [3] (cotreatment with IFNAR blocking antibodies (FIG. 16)) is “abrogated”. The tumour growth entry in assay [3] (poly(I:C) 3 days before ICB, vs ICB alone (FIG. 16)) was “clear delay in tumour growth compared to ICB alone”. Besides, in assay [4], the “NK infiltration (NK cells of all leukocytes)” value is on record as “increased NK cell numbers” and the “STAT1 phosphorylation (pSTAT1 activation)” value is recorded as “pSTAT1 activation”.

As to `CC1=C(/C=C/C(C)=C/C=C/C(C)=C\C(=O)O)C(C)(C)CCC1` [isotretinoin, 13-cis-retinoic acid], the “percentage of complete regression after combination therapy with ICB, compared to ICB alone” value in assay [2] was “increased percentage of complete regression”.
